According to US20260335305A1, “METHODS OF USING ITRACONAZOLE DRY POWDERS” (Pulmatrix Operating Company, Inc., priority 2022, published 2026):
Read-outs that look alike come from different tables or passages of the source.

Assays:
[1] = Itraconazole subparticle size of milled suspension; type: physicochemical; details: water and polysorbate 80, milled at 1800 rpm for one hour
Procedure: Particle Size Reduction using Low Energy Wet Milling. One technique for reducing the particle size of the itraconazole was via low energy wet milling (also known as roller milling, or jar milling). Suspensions of the itraconazole were prepared in an anti-solvent, which can be water, or any solvent in which the active agent is not appreciably soluble. Stabilizers, which can be, but are not limited to, non-ionic surfactants or amphiphilic polymers, are then added to the suspension along with milling media, which can be, but are not limited to, spherical with high wear resistance and in the size range from 0.03 to 0.70 millimeters in diameter. The vessels containing the suspensions are then rotated using a jar mill (US Stoneware, East Palestine, OH USA) while taking samples periodically to assess particle size (LA-950, HORIBA, Kyoto, Japan).
Particle Size Reduction using High Energy Wet Milling: Another technique for reducing the particle size of the itraconazole was via high-energy wet milling using a rotor-stator, or agitated media mill. Suspensions of the itraconazole were prepared in an anti-solvent, which can be water, or any solvent in which the active agent is not appreciably soluble. […]

CYP3A4 = details: role: inhibitor; unbound Ki, Simcyp V19 file; cited from earlier work
[2] = cited from earlier work; for AUC0-24 h / Accumulation ratio AUC0-24 h / Accumulation ratio Cmax / Cmax / Kel / Tmax: inhaled Formulation I
[3] = cited from earlier work; for RB / fu: Simcyp V19 file
[4] = single inhaled dose of 20 mg of dry powder; cited from earlier work
[5] = Day 1, 35 mg inhaled Formulation I QD
[6] = Day 14, 35 mg inhaled Formulation I QD

Compound | Ki, u, ITZ (CYP3A4) [nM] | AUC0-24 h, observed mean [2, 5] [ng·h/mL] | Cmax, observed mean [2, 5] [ng/mL] | AUC0-24 h, observed mean [2, 6] [ng·h/mL] | Cmax, observed mean [2, 6] [ng/mL] | AUC0-24 h ([2]; 10 mg) | Accumulation ratio AUC0-24 h ([2]; 10 mg) | Accumulation ratio Cmax ([2]; 10 mg) | Cmax ([2]; 10 mg) | Kel ([2]; 10 mg) [h⁻¹] | Tmax ([2]; 10 mg) [h] | AUC0-24 h ([2]; 20 mg) | Accumulation ratio AUC0-24 h ([2]; 20 mg) | Accumulation ratio Cmax ([2]; 20 mg) | Cmax ([2]; 20 mg) | Kel ([2]; 20 mg) [h⁻¹] | Tmax ([2]; 20 mg) [h] | AUC0-24 h ([2]; 35 mg QD for 14 days) | Accumulation ratio AUC0-24 h ([2]; 35 mg QD for 14 days) | Accumulation ratio Cmax ([2]; 35 mg QD for 14 days) | other results
CCC(C)n1ncn(-c2ccc(N3CCN(c4ccc(OCC5COC(Cn6cncn6)(c6ccc(Cl)cc6Cl)O5)cc4)CC3)cc2)c1=O (centres unmarked) [Itraconazole, itraconazole] | […] | […] | 5.23 | […] | 15.2 | […] | […] | […] | […] | […] | […] | […] | […] | […] | […] | […] | […] | […] | […] | […] | final median particle size (Dv(50)) of the milled suspension [1]: […]; Cmax ([2]; 35 mg QD for 14 days): 15.2 (49.3) ng/mL; Kel ([2]; 35 mg QD for 14 days): […]; Tmax ([2]; 35 mg QD for 14 days): […]; RB [3]: […]; fu [3]: […]; lung exposure [4]: lung exposures that would be considered therapeutic
CC(O)C(C)n1ncn(-c2ccc(N3CCN(c4ccc(OCC5COC(Cn6cncn6)(c6ccc(Cl)cc6Cl)O5)cc4)CC3)cc2)c1=O (centres unmarked) [OH-itraconazole] | 2.3 | 38.2 | 2.10 | 168 | 8.68 | 42.4 (26.1) ng h/mL | 3.8 | 3.5 | 2.25 (25.3) ng/mL | 0.0263 | 6 | 128 (56.1) ng h/mL | 4.4 | 4.2 | 6.43 (54.7) ng/mL | 0.0223 | 6 | 169 (116) ng h/mL | 4.5 | 4.2 | Cmax ([2]; 35 mg QD for 14 days): 8.68 (91.0) ng/mL; Kel ([2]; 35 mg QD for 14 days): 0.0248 h⁻¹; Tmax ([2]; 35 mg QD for 14 days): 8 h; RB [3]: 0.58; fu [3]: 0.016
Cc1ncc2n1-c1ccc(Cl)cc1C(c1ccccc1F)=NC2 [Midazolam, midazolam] | – | – | – | – | – | – | – | – | – | – | – | – | – | – | – | – | – | – | – | – | fm ([3]; Simcyp V19 Midazolam File): 0.84
